# Reference: patent publication US12612412B2, “Antiviral heterocyclic compounds” (Enanta Pharmaceuticals, Inc., priority 2021, dated 2026)
# System: genotype A, "Long" strain RSV
# Assay: RSV-A assay (CPE protection in Hep-2 cells, ATPlite readout)
# Type: cell-based, Human respiratory syncytial virus (HRSV)
# Conditions: human respiratory syncytial virus, RSV-A Long strain, MOI 0.1, CPE protection, read-out: Human RSV-A (“Long”) EC50
# From the text: Hep-2 cells, (originally derived from tumors grown in irradiated-cortisonised weanling rats that had been injected with epidermoid carcinoma tissue from the larynx of a person, but later found to be indistinguishable from HeLa cells by PCR DNA analysis), were used for the culturing of genotype A, “Long” strain RSV. Flasks were inoculated with RSV and viral stocks were collected once cytopathic effect (CPE) was greater than 90%. Viral stocks in 25% sucrose media were snap frozen using liquid nitrogen to increase viral stability. Viral stock titers were quantified by tissue culture infectious dose 50% (TCID50) using 8,000 cells per well and 3-fold viral dilutions across a 96-well plate, cultured for 4 days. Viral stock titers were also quantified by a plaque forming unit assay, as described elsewhere.
# Following extensive parameter testing, the final assay is run as follows: Hep-2 cells are seeded into the inner 60 wells of a 96-well plate at 8,000 cells per well in a volume of 50 μL using Growth Media (DMEM without phenol red, 1% L-Glut, 1% Penn/Strep, 1% nonessential amino acids, 10% heat-inactivated FBS). 2-fold serial dilutions of control and test compounds are added to the wells in duplicate in a total volume of 25 μL. Viral stock is then added to the wells at a multiplicity of infection (MOI) of 0.1 in a volume of 25 μL, bringing the total volume of each well to 100 μL. The MOI is calculated using the PFU/mL, or TCID50 if unavailable. Each 96-well plate has a control column of 6 wells with cells and virus but no compound (negative control, max CPE), a column with cells but no compound or virus (positive control, minimum CPE), and a column with no cells or virus or compound (background plate/reagent control). The control wells with cells but no virus are given an additional 25 μL of growth media containing an equal quantity of sucrose as those wells receiving the viral stock in order to keep consistent in media and volume conditions. The outer wells of the plate are filled with 125 μL of moat media (DMEM, 1% Penn/Strep) to act as a thermal and evaporative moat around the test wells. Following a 5-day incubation period, the plates are read using ATPlite (50 uL added per well), which quantifies the amount of ATP (a measure of cell health) present in each well. Assay plates are read using the Envision luminometer. […] EC50 ranges are as follows: A<0.2 μM; B>0.2 μM.
row,EC50,SMILES
1,< 200 nM,COc1cc(C(=O)NC[C@](O)(c2cc3c(c(-c4ccc(F)cc4)n2)OC[C@]3(C)C(N)=O)C2CC2)cc2cc(C)nnc12 [Example 1108]
2,> 200 nM,COc1cc(C(=O)NC[C@@](O)(c2cc3c(c(-c4ccc5c(c4)OCO5)n2)OC[C@]3(C)C(N)=O)C(F)(F)F)cc2cn(C3CC3)nc12 [Example 907]
3,> 200 nM,COc1cc(C(=O)NC[C@@](O)(c2cc3c(c(-c4ccc5c(c4)OC(F)(F)C5(F)F)n2)OC[C@]3(C)C(N)=O)C2CC2)cc2cn(C3CC3)nc12 [Example 1237]
4,> 200 nM,COc1cc(C(=O)NC[C@](O)(c2cc3c(c(C4=CCN(C(=O)OC(C)(C)C)CC4)n2)OC[C@]3(C)C(N)=O)C(F)(F)F)cc2cn(C3CC3)nc12 [Example 1241]
5,< 200 nM,COc1cc(C(=O)NCC(O)(c2cc3c(c(-c4cc(F)cc(Cl)c4)n2)OC[C@]3(C)C(N)=O)C(F)(F)F)cc2cn(C3CC3)nc12 (stereo partly shown) [Example 1252]
6,< 200 nM,COc1cc(C(=O)NC[C@](O)(c2cc3c(c(-c4cccc(Cl)c4Cl)n2)OC[C@]3(C)C(N)=O)C(F)(F)F)cc2cn(C3CC3)nc12 [Example 1253]
7,< 200 nM,CNC(=O)[C@@]1(C)COc2c1cc([C@@](O)(CNC(=O)c1cc(OC)c3nn(C4CC4)cc3c1)C(F)(F)F)nc2-c1cc(Cl)c(F)cc1F [Example 1203]
8,> 200 nM,COc1cc(C(=O)NC[C@](O)(c2cc3c(c(-c4ccc5oc(C)nc5c4)n2)OC[C@]3(C)C(N)=O)C(F)(F)F)cc2cn(C3CC3)nc12 [Example 902]
9,< 200 nM,COc1cc(C(=O)NC[C@](O)(c2cc3c(c(-c4cc(Cl)cc(Cl)c4F)n2)OC[C@]3(C)C(N)=O)C(F)(F)F)cc2cn(C3CC3)nc12 [Example 1258]
10,> 200 nM,COc1cc(C(=O)NC[C@](O)(c2nc(-c3ccc(F)c(Cl)c3F)c3c(c2Cl)[C@@](C)(C(N)=O)CO3)C2CC2)cc2cn(C3CC3)nc12 [Example 1217]
11,< 200 nM,COc1cc(C(=O)NC[C@](O)(c2cc3c(c(-c4ccc(F)c(Cl)c4F)n2)OC[C@]3(C)C(N)=O)C2(F)CC2)cc2cc(Br)cnc12 [Example 1114]
12,< 200 nM,COc1cc(C(=O)NC[C@](O)(c2cc3c(c(-c4ccc(F)cc4)n2)OC[C@]3(C)C(N)=O)C(F)(F)F)cc2cc(Br)c(C)nc12 [Example 1115]
13,< 200 nM,CNC(=O)[C@@]1(C)COc2c1cc([C@@](O)(CNC(=O)c1cc(OC)c3nn(C4CC4)cc3c1)C(F)(F)F)nc2-c1ccc(F)c(F)c1Cl [Example 1202]

# Same assay, conditions: human respiratory syncytial virus, genotype A “Long” strain RSV, MOI 0.1, CPE protection, read-out: Human RSV-A (“Long”)
row,SMILES,EC50
1,C[C@]1(C(N)=O)COc2c1cc([C@@](O)(CNC(=O)c1cnn(-c3ccccc3)c1C(F)(F)F)C(F)(F)F)nc2-c1ccc(F)cc1 [Example 456],> 200 nM
2,Cc1cccc2nc(C(=O)NC[C@](O)(c3cc4c(c(-c5ccc(F)cc5)n3)OC[C@]4(C)C(N)=O)C(F)(F)F)cn12 [Example 807],> 200 nM
3,COc1cc(C(=O)NC[C@](O)(c2cc3c(c(-c4ccc(F)c(Cl)c4)n2)OC[C@]3(C)C(N)=O)C2CC2)cn2cc(C3CC3)nc12 [Example 634],< 200 nM
4,COC(=O)C12CC(C(=O)NC[C@](O)(c3cc4c(c(-c5ccc(F)cc5)n3)OC[C@]4(C)C(N)=O)C(F)(F)F)(C1)C2 [Example 442],> 200 nM
5,C[C@]1(C(N)=O)COc2c1cc([C@@](O)(CNC(=O)c1cnc(-c3ccccc3F)s1)C(F)(F)F)nc2-c1ccc(F)cc1 [Example 484],> 200 nM

# Results, then the molecule that gave them:
row,EC50,SMILES
1,< 200 nM,C[C@]1(C(N)=O)COc2c1cc([C@@](O)(CNC(=O)c1cc(Br)c3oc(N)nc3c1)C(F)(F)F)nc2-c1ccc(F)cc1 [Example 202]
2,> 200 nM,NC(=O)[C@]1(C2CC2)COc2c1cc([C@@](O)(CNC(=O)c1cc(F)c3nc(N)sc3c1)C(F)(F)F)nc2-c1ccc(F)cc1 [Example 262]
3,< 200 nM,Cc1cc(C(=O)NC[C@](O)(c2cc3c(c(-c4ccc(F)cc4)n2)OC[C@]3(C)C(N)=O)C(F)(F)F)cc2nc[nH]c12 [Example 194]
4,> 200 nM,C[C@]1(C(N)=O)COc2c1cc([C@@](O)(CNC(=O)c1ccnc3ccccc13)C(F)(F)F)nc2-c1ccc(F)cc1 [Example 399]
5,> 200 nM,COc1cccc(-n2cc(C(=O)NC[C@](O)(c3cc4c(c(-c5ccc(F)cc5)n3)OC[C@]4(C)C(N)=O)C(F)(F)F)cn2)c1 [Example 449]
6,> 200 nM,C[C@]1(C(N)=O)COc2c1cc([C@@](O)(CNC(=O)c1ccc(C(F)F)nc1)C(F)(F)F)nc2-c1ccc(F)cc1 [Example 408]
7,> 200 nM,CC[C@@]1(C(N)=O)COc2c1cc([C@@](O)(CNC(=O)c1ccc(OC[C@@H](C)O)c(OC3CC3)c1)C(F)(F)F)nc2-c1ccc(F)cc1 [Example 251]
8,> 200 nM,C[C@]1(C(N)=O)COc2c1cc([C@@](O)(CNC(=O)c1nc3cccnc3s1)C(F)(F)F)nc2-c1ccc(F)cc1 [Example 335]
9,< 200 nM,COc1cc(C(=O)NC[C@](O)(c2cc3c(c(-c4ccc(F)cc4)n2)OC[C@@]3(CF)C(N)=O)C(F)(F)F)cc2cc(Cl)c(C)nc12 [Example 284]
10,> 200 nM,C[C@]1(C(N)=O)COc2c1cc([C@@](O)(CNC(=O)c1c[nH]c3cc(Cl)ccc13)C(F)(F)F)nc2-c1ccc(F)cc1 [Example 345]
11,< 200 nM,"COc1cc(C(=O)NC[C@](O)(c2cc3c(c(-c4ccc(F)cc4)n2)OC[C@]3(CCl)C(N)=O)C(F)(F)F)cc2cc(C)c(C)nc12 [Example 233, (S)-3-(chloromethyl)-7-(4-fluorophenyl)-5-((S)-1,1,1-trifluoro-2-hydroxy-3-(8-methoxy-2,3-dimethylquinoline-6-carboxamido)propan-2-yl)-2,3-dihydrofuro[2,3-c]pyridine-3-carboxamide]"
12,> 200 nM,C[C@]1(C(N)=O)COc2c1cc([C@@](O)(CNC(=O)c1ccc3cc[nH]c3c1F)C(F)(F)F)nc2-c1ccc(F)cc1 [Example 359]
13,> 200 nM,Cc1ncc(C(=O)NC[C@](O)(c2cc3c(c(-c4ccc(F)cc4)n2)OC[C@]3(C)C(N)=O)C(F)(F)F)s1 [Example 431]
14,< 200 nM,COC(=O)Nc1cc(C(=O)NC[C@](O)(c2cc3c(c(-c4ccc(F)cc4)n2)OC[C@]3(C)C(N)=O)C(F)(F)F)ccc1F [Example 340]
15,> 200 nM,Cc1cc2ccc(C(=O)NC[C@](O)(c3cc4c(c(-c5ccc(F)cc5)n3)OC[C@]4(C)C(N)=O)C(F)(F)F)cn2c1 [Example 189]
16,< 200 nM,COc1cc(C(=O)NC[C@](O)(c2cc3c(c(-c4ccc(F)cc4)n2)OC[C@]3(CF)C(N)=O)C(F)(F)F)cc2cc(C(F)(F)F)cnc12 [Example 287]
17,> 200 nM,C[C@]1(C(N)=O)COc2c1cc([C@@](O)(CNC(=O)c1c[nH]c3ccccc13)C(F)(F)F)nc2-c1ccc(F)cc1 [Example 352]
18,< 200 nM,COc1cc(C(=O)NC[C@](O)(c2cc3c(c(-c4ccc(F)cc4)n2)OCC3(C(N)=O)C(F)F)C(F)(F)F)ccc1OC1CC1 (stereo partly shown) [Example 261]
19,> 200 nM,C[C@]1(C(N)=O)COc2c1cc([C@@](O)(CNC(=O)c1cccc3[nH]ccc13)C(F)(F)F)nc2-c1ccc(F)cc1 [Example 415]
20,< 200 nM,CCN1Cc2cc(C(=O)NC[C@](O)(c3cc4c(c(-c5ccc(F)cc5)n3)OC[C@]4(C)C(N)=O)C(F)(F)F)ccc2C1=O [Example 36]
21,< 200 nM,COc1cc(C(=O)NC[C@](O)(c2cc3c(c(-c4ccc(F)cc4)n2)OC[C@]3(C)C(N)=O)C(F)(F)F)cc2cn(C3(C)CC3)nc12 [Example 232]
22,> 200 nM,C[C@]1(C(N)=O)COc2c1cc([C@@](O)(CNC(=O)c1cn3cc(F)ccc3n1)C(F)(F)F)nc2-c1ccc(F)cc1 [Example 809]
